The molecule `CC(C)OC(=O)C(=C1SCCS1)c1ccc(F)cc1` registered a melting point of 106 to 107 °C.

`COc1cc2nccc(N3CCN(C(=O)Nc4ccc(Oc5ccccc5)cc4)CC3)c2cc1OC` displayed a melting point of 204 to 206 °C.

With `CN1CCC(OC2c3ccccc3CCn3c2nc(-c2ccc(Br)cc2)c3Cl)CC1` (stereo not given), the melting point turned out to be 169 °C.

Molecule `O=C(O)C(Cc1ccccc1)Oc1c(Br)cc(-c2ccc(-c3c(Cc4ccccc4)oc4ccccc34)cc2)cc1Br` (stereo not given) returned a melting point of 90 to 92 °C.

Consider `COc1nc2sccc2c2nc(S(=O)(=O)Nc3c(Cl)cccc3Cl)nn12`, for which the melting point was in the range of 224 to 226 °C.

`CCOC(=O)C(C)(C)Oc1ccc(-c2ccc(CCNC(C)=O)cc2)cc1`: the melting point is < 20 °C.

`COC(=O)c1cc(OC)c(OCc2ccccc2)cc1N=CN(C)C`: the melting point lay within 134 to 140 °C.

Molecule `CC(O)c1ccnc(C(=O)c2[nH]c3cc(Cl)ccc3c2CC(=O)O)c1` (stereo not given) registered a melting point of 193 to 194 °C.

`CC1(C)CCc2c(N3CCOCC3)nc3sc4c(NCCCN5CCCC5=O)ncnc4c3c2C1` had a melting point of 210 °C.

On to `CNC(=S)n1nc(Oc2ncc(C(F)(F)F)cc2Cl)cc1C`, for which the melting point lay within 63 to 65 °C.

`COC(=O)c1ccc(C(=O)NS(=O)(=O)c2ccc(CCNC(=O)CCC(C)C)cc2)cn1` displayed a melting point of 204 to 206 °C.

Consider `CCCCC#Cc1ccc(-c2cc(C(F)(F)F)nn2-c2ccc(S(C)(=O)=O)cc2)cc1`, for which the melting point fell in the range of 96 to 98 °C.

Consider `Cc1nc(C)c(Cl)c(NCc2ccc(OCc3ccccc3)c(OCC(F)(F)F)c2)n1`, for which the melting point lay within 135 to 138 °C.

In turn, `CC(C)(C)OC(=O)NC(C)(C)c1ccc(-c2nc(Nc3cccc(CCO)c3)ncc2C#N)cc1` returned a melting point of 164 °C.

As to `COc1cc([N+](=O)[O-])c2nccc(C)c2c1Oc1cccc(C(F)(F)F)c1`, the melting point fell in the range of 206 to 208 °C.

Take `CON(C)C(=O)c1ccc(-c2ccc(CBr)cc2)cc1`: the melting point is 105 to 106 °C.

Turning to `CC(Cl)C(=O)c1ccc2c(c1)CCC(=O)N2` (stereo not given), the melting point was 205 to 206 °C.

As for `COc1ccc(-c2nc(CC(=O)Cc3ccc(OC(C)=O)c(OC(C)=O)c3)cs2)cc1OC`, the melting point came out at 128 °C.

The molecule `Nc1c(F)cc(C=O)c(F)c1Br` registered a melting point of 132 to 133 °C.

Molecule `CN(C)CCNc1ncc(C(=O)N(C)Cc2cc(C(F)(F)F)cc(C(F)(F)F)c2)c(-c2ccccc2)n1` had a melting point of 110 °C.

On to `COc1ccc2c(ncn2C(=O)OC(C)(C)C)c1CBr`, for which the melting point lay within 127 to 129 °C.

Molecule `CCn1c2ccccc2c2cc(I)ccc21` showed a melting point of 78 to 80 °C.

`Cn1c(=O)c(-c2ccc(Cl)cc2Cl)cc2c3cc(-c4ncco4)ccc3n(C)c21` had a melting point of 232 to 233 °C.

For the molecule `CCCCCCCC=CCCCCCCCCC(=O)OCC(O)COC(=O)CCCCCCCC=CCCCCCCCC` (stereo not given), the melting point is 20 to 22 °C.

`O=C1CC(c2ccc(F)cc2)c2ccc(F)cc21` (stereo not given) had a melting point of 70 to 73 °C.

In turn, `COC(=O)C1=C(C)NC(C)=C(c2nnco2)C1c1cccc(Cl)c1Cl` (stereo not given) registered a melting point of 225 to 229 °C.

Molecule `O=S1(=O)N=C(NC23CC4CC(CC(C4)C2)C3)Nc2cc(Cl)sc21` displayed a melting point of 339 to 340 °C.

The molecule `O=C(c1cc(C2=CCCCC2)ccn1)N(O)Cc1ccccc1` returned a melting point of 118 to 122 °C.

In the case of `Cn1cc(C2=C(c3c4n(c5ccccc35)CCC(CO)CC4)C(=O)NC2=O)c2ccccc21` (stereo not given), the melting point was in the range of 109 to 111 °C.

`Nc1nccc(Oc2ccc3c(C(=O)Nc4cccc(C(F)(F)F)c4)cccc3c2)n1` yielded a melting point of 218 °C.

`COC(=O)NCCCCn1c(=O)c2c(C)nc3cccc1n32` had a melting point of 175 to 176 °C.

With `CCOC(=O)COc1ccc(-c2c(Cl)c(CN3C(=O)CCC3=O)nc3sc4c(c23)CCS(=O)(=O)C4)cc1`, the melting point was in the range of 215 to 216 °C.

For the molecule `CCCCc1nc2ccc(C3=NN4CCCC4C3)cc2c(=O)n1Cc1ccc(-c2ccccc2-c2nnn[nH]2)cc1` (stereo not given), the melting point turned out to be 126 °C.

In the case of `CCN(CC)C(=O)Nc1ccc(S(=O)(=O)n2c(=O)n(C3CCCCC3)c3cc(Cl)ccc32)c(OC)c1`, the melting point is 250 °C.

In the case of `CCOC(=O)C1=C(COCc2nnn(CCN3CCN(C(=O)NC)CC3)n2)NC(C)=C(C(=O)OC)C1c1cccc(Cl)c1Cl` (stereo not given), the melting point lay in the range of 112 to 114 °C.

As to `O=C(NC(Cc1ccc(OCc2ccccc2)cc1)C(=O)O)c1cn2cc(-c3ccccc3F)ccc2n1` (stereo not given), the melting point stood at 238 °C.

For the molecule `C=C(C(=O)OC1CC2CCC(C1)N2C(C)=O)c1ccccc1` (stereo not given), the melting point is 104 to 107 °C.

`O=[N+]([O-])c1ccc(Cl)nc1N1CCNCC1` displayed a melting point of 50 to 53 °C.

Turning to `O=C1N=NC(=O)c2c1[nH]c1cc(Br)cc(Br)c21`, the melting point is > 400 °C.

Molecule `CNC(=O)C(Cc1ccc(OC)cc1)NC(=O)C(CC(C)C)C(CC(=O)N1CCN(C)CC1)SC(C)=O` (stereo not given) yielded a melting point of 133 to 138 °C.

As for `CCCCC1(CCCC)CCc2c(OCc3ccc4ccccc4n3)cccc2C1O` (stereo not given), the melting point was in the range of 62 to 65 °C.

`CS(=O)(=O)c1ccc(C2=C(Br)C(=O)C3(CCCC3)O2)cc1`: the melting point fell in the range of 127 to 128 °C.

As to `COc1ccc(-c2cc(C(Cl)Cl)nn2-c2ccc(S(N)(=O)=O)cc2)cc1F`, the melting point lay within 190 to 193 °C.

Molecule `COc1cc(OC)c(C2CCN(C)C2CO)c(OC)c1` (stereo not given) gave a melting point of 82 to 85 °C.

Turning to `O=C(N[C@H](Cc1ccccc1)C(=O)O)OCc1ccc2[nH]c(-c3ccccc3)cc2c1`, the melting point is 176 to 177 °C.

`CCC1(CC(=O)O)OCC(Cc2ccccc2)c2c1[nH]c1ccccc21` (single isomer, unassigned; (-)): the melting point was 142 to 143 °C.

On to `CCSc1cc(C)nc(SCC)c1NC(=O)CCCSc1nc2ccccc2s1`, for which the melting point is 119 to 120 °C.

On to `O=C(CCCCSc1ccc(O)cc1)N1CCOCC1`, for which the melting point lay within 112 to 113 °C.

For the molecule `CCCCNC(=O)Oc1ccc2oc3ccccc3c2c1`, the melting point was 124 to 126 °C.

With `C#Cc1ccc2c(c1)c(=O)c(C(=O)OCC)cn2CC`, the melting point fell in the range of 185 to 187 °C.

Molecule `O=C(N[C@H](Cc1cccc(C(F)(F)F)c1)[C@@H](O)c1ccc(F)cc1)c1ccc(F)c2ccccc12` (racemic) yielded a melting point of 193 to 194 °C.

As for `C/C(=C(\C#N)C(N)=S)N1CCCN(c2ccccn2)CC1`, the melting point was in the range of 155 to 157 °C.

In turn, `Clc1ccc2nc(Cl)nc(-c3ccccc3Cl)c2c1` returned a melting point of 175 to 176 °C.

For the molecule `CCCC1=C(C#N)C(c2cccc(C#N)c2Cl)c2c[nH]nc2N1` (stereo not given), the melting point was > 250 °C.

The molecule `NC(=O)NC(Cc1c[nH]c2ccccc12)C(=O)NCc1cc(C(F)(F)F)cc(C(F)(F)F)c1` (stereo not given) displayed a melting point of 210 to 212 °C.

Regarding `COc1ccc(C(=O)Nc2ccccc2)cc1Oc1ccccc1`, the melting point was in the range of 200 to 201 °C.

The molecule `Cc1ccccc1NC(C#N)c1c(Cl)cccc1Cl` (stereo not given) displayed a melting point of 108 °C.

With `CC(C)(CO)c1cnc(-c2nn(-c3ccc(F)cc3F)c3c2C2CCC3C2)o1` (stereo not given), the melting point was in the range of 66 to 68 °C.

For the molecule `CCOC(=O)c1cnn2c1[nH]c(=O)c1cnc3c(cnn3CC)c12`, the melting point lay within 263 to 265 °C.

For `COCc1c(C(=O)OC(C)C)ncc2[nH]c3cccc(Oc4ccccn4)c3c12`, the melting point lay within 188 to 189 °C.

These data come from a melting point compilation (Tetko et al.; mined from patent text by program, amines drawn as free bases though some values may be those of a salt).
